Reference: US20210332408A1, “SYSTEMS AND METHODS FOR OPTIMIZATION OF ENZYMES” (Vader Nanotechnologies Inc., priority 2020, published 2021)

Tested on: bacterial growth
Experiment: Maximum PFNA experiment, image processing of bacterial growth (FIG. 6)
Format: cell-based
Details: FIG. 6, images at T=0, 10, 80 hrs

O=C(O)C(F)(F)C(F)(F)C(F)(F)C(F)(F)C(F)(F)C(F)(F)C(F)(F)C(F)(F)F [PFNA Solution, Perfluorononanoic acid (PFNA)]
bacterial growth with increasing PFNA concentration: slows bacterial growth
